US20260078103A1, “ISOQUINOLONES AS PI3K INHIBITORS” (OnKure, Inc., priority 2022, published 2026)
pEC50, pIC50: −log10 of the molar value. Read-outs that look alike come from different tables or passages of the source.

Legend:
Assay type in all cases: cell-based
[1] = system: T47D cells expressing mutant PI3Ka (H1047R); experiment: In vitro cell proliferation, T47D cells (CellTiter-Glo); settings: inhibition of proliferation, read-out: Avg T-47D EC50
Procedure, shortened: (§1)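 EC50 values derive from a four-parameter logistic fit of luminescence-based (CellTiter-Glo) inhibition, referenced to 0.1% DMSO and 10 uM Alpelisib controls. Compound exposure lasted 72 h at 37 °C.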

[2] = system: SKBR3 cells express WT PI3Ka; experiment: In vitro cell proliferation, SKBR3 cells (CellTiter-Glo); settings: inhibition of proliferation
Procedure, shortened: as §1

[3] = system: phosphorylation of AKT (pAKT) in T47D cells expressing mutant PI3Ka (H1047R); experiment: In vitro cell pAKT (Ser473) HTRF, T47D cells; settings: cellular pAKT, T47D cells, mutant PI3Ka (H1047R), 6 hours, read-out: Avg T-47D IC50
Procedure, shortened: (§2)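 pAKT (Ser473) was quantified by HTRF in lysates from cells exposed 6 h at 37 °C to 10-point compound series, with T47D in insulin-supplemented RPMI/10% FBS and SKBR3 in McCoy's 5a/10% FBS. Controls: 0.1% DMSO (high) and 10 uM alpelisib (low). IC50 from sigmoidal curve fitting.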

[4] = system: phosphorylation of AKT (pAKT) in SKBR3 cells express WT PI3Ka; experiment: In vitro cell pAKT (Ser473) HTRF, SKBR3 cells; settings: cellular pAKT
Procedure, shortened: as §2

| pEC50 ([1]; 72 hours) | pEC50 ([2]; 72 hours) | pIC50 [3] | pIC50 ([4]; 6 hours) | pEC50 ([2]; Homo sapiens, SK-BR-3, 72 h) | pIC50 ([4]; Homo sapiens, SK-BR-3, 6 h) | pIC50 ([3]; Homo sapiens, T47D, 6 h) | pEC50 ([1]; Homo sapiens, T47D, 72 h) | SMILES |
| --- | --- | --- | --- | --- | --- | --- | --- | --- |
| 6.30 to 9.00 | 4.82 to 5.70 | 6.30 to 9.00 | 4.82 to 5.70 |  |  |  |  | Cc1cc(C(C)Nc2ccccc2C(=O)O)c2cc(N3CCN(C(=O)OC(C)C)CC3)n(C)c(=O)c2c1 (single isomer, unassigned) [Example 149] |
| 4.82 to 5.70 |  | 4.82 to 5.70 |  | < 4.82 | < 4.82 |  |  | Cc1cc(C(C)Nc2ccccc2C(=O)O)c2cc(N3CCS(=O)(=O)CC3)n(C)c(=O)c2c1 (single isomer, unassigned) [Example 150] |
| < 4.82 | < 4.82 | < 4.82 | < 4.82 |  |  |  |  | Cc1cc(C(C)Nc2ccccc2C(=O)O)c2cc(N3CCS(=O)(=O)CC3)n(C)c(=O)c2c1 (single isomer, unassigned) [Example 151] |
| 6.30 to 9.00 | 4.82 to 5.70 | 6.30 to 9.00 | 4.82 to 5.70 |  |  |  |  | COC1(C)CCN(c2cc3c(C(C)Nc4ccccc4C(=O)O)cc(C)cc3c(=O)n2C)CC1 (single isomer, unassigned) [Example 153] |
| 4.82 to 5.70 | < 4.82 | < 4.82 | < 4.82 |  |  |  |  | COC1(C)CCN(c2cc3c(C(C)Nc4ccccc4C(=O)O)cc(C)cc3c(=O)n2C)CC1 (single isomer, unassigned) [Example 154] |
| 6.30 to 9.00 |  | 6.30 to 9.00 |  | < 4.82 | < 4.82 |  |  | COc1ccc(-c2cc3c(C(C)Nc4ccccc4C(=O)O)cc(C)cc3c(=O)n2C)cn1 (single isomer, unassigned) [Example 155] |
| 4.82 to 5.70 | < 4.82 | 4.82 to 5.70 | < 4.82 |  |  |  |  | COc1ccc(-c2cc3c(C(C)Nc4ccccc4C(=O)O)cc(C)cc3c(=O)n2C)cn1 (single isomer, unassigned) [Example 156] |
| 4.82 to 5.70 | < 4.82 | 4.82 to 5.70 | < 4.82 |  |  |  |  | Cc1cc(C(C)Nc2ccccc2C(=O)O)c2cc(N3CCC4(CCOCC4)CC3)n(C)c(=O)c2c1 (single isomer, unassigned) [Example 166] |
| 6.30 to 9.00 | 4.82 to 5.70 | 6.30 to 9.00 | 4.82 to 5.70 |  |  |  |  | Cc1cc(C(C)Nc2ccccc2C(=O)O)c2cc(N3CCC4(CCOCC4)CC3)n(C)c(=O)c2c1 (single isomer, unassigned) [Example 167] |
| 6.30 to 9.00 | < 4.82 | 6.30 to 9.00 | 4.82 to 5.70 |  |  |  |  | Cc1cc(C(C)Nc2ccccc2C(=O)O)c2cc(N3CCC4(CCCCO4)CC3)n(C)c(=O)c2c1 (single isomer, unassigned) [Example 168] |
| < 4.82 | < 4.82 | 4.82 to 5.70 | < 4.82 |  |  |  |  | Cc1cc(C(C)Nc2ccccc2C(=O)O)c2cc(N3CCC4(CCCCO4)CC3)n(C)c(=O)c2c1 (single isomer, unassigned) [Example 169] |
| 4.82 to 5.70 |  | < 4.82 |  | < 4.82 | < 4.82 |  |  | Cc1cc(C(C)Nc2ccccc2C(=O)O)c2cc(N3Cc4ccc(F)c(F)c4C3)n(C)c(=O)c2c1 (single isomer, unassigned) [Example 177] |
| 5.70 to 6.30 | < 4.82 | 6.30 to 9.00 | < 4.82 |  |  |  |  | Cc1cc(C(C)Nc2ccccc2C(=O)O)c2cc(N3Cc4ccc(F)c(F)c4C3)n(C)c(=O)c2c1 (single isomer, unassigned) [Example 178] |
| < 4.82 |  | < 4.82 |  | < 4.82 | < 4.82 |  |  | Cc1cc(C(C)Nc2ccccc2C(=O)O)c2cc(N3CC(C)(O)C3)n(C)c(=O)c2c1 (single isomer, unassigned) [Example 181] |
| 4.82 to 5.70 | < 4.82 | 4.82 to 5.70 | < 4.82 |  |  |  |  | Cc1cc(C(C)Nc2ccccc2C(=O)O)c2cc(N3CC(C)(O)C3)n(C)c(=O)c2c1 (single isomer, unassigned) [Example 182] |
| < 4.82 |  | < 4.82 |  | < 4.82 | < 4.82 |  |  | COC1(C)CN(c2cc3c(C(C)Nc4ccccc4C(=O)O)cc(C)cc3c(=O)n2C)C1 (single isomer, unassigned) [Example 183] |
| 5.70 to 6.30 |  |  |  | < 4.82 | < 4.82 | 6.30 to 9.00 |  | Cc1cc([C@@H](C)Nc2ccccc2C(=O)O)c2cc(N3CC4CC3CN4CC(F)(F)F)n(C)c(=O)c2c1 (single isomer, unassigned) [Example 211] |
| 5.70 to 6.30 | < 4.82 | 6.30 to 9.00 | < 4.82 |  |  |  |  | COC1(C)CN(c2cc3c(C(C)Nc4ccccc4C(=O)O)cc(C)cc3c(=O)n2C)C1 (single isomer, unassigned) [Example 213] |

| pEC50 ([1]; 72 hours) | pEC50 ([2]; 72 hours) | pIC50 [3] | pIC50 ([4]; 6 hours) | pEC50 ([2]; Homo sapiens, SK-BR-3, 72 h) | pIC50 ([4]; Homo sapiens, SK-BR-3, 6 h) | pIC50 ([3]; Homo sapiens, T47D, 6 h) | pEC50 ([1]; Homo sapiens, T47D, 72 h) | SMILES |
| --- | --- | --- | --- | --- | --- | --- | --- | --- |
| 6.30 to 9.00 | < 4.82 | 6.30 to 9.00 | < 4.82 |  |  |  |  | Cc1cc([C@@H](C)Nc2ccccc2C(=O)O)c2cc(N3CC4CC3CN4CC(F)(F)F)n(C)c(=O)c2c1 (single isomer, unassigned) [Example 224] |
|  | < 4.82 |  |  |  | < 4.82 | 6.30 to 9.00 | 6.30 to 9.00 | CCN1CCN(c2cc3c([C@@H](C)Nc4ccccc4C(=O)O)cc(C)cc3c(=O)n2C)CC1C(F)(F)F (single isomer, unassigned) [Example 266] |
| 6.30 to 9.00 | 4.82 to 5.70 | 6.30 to 9.00 | < 4.82 |  |  |  |  | CCN1CCN(c2cc3c([C@@H](C)Nc4ccccc4C(=O)O)cc(C)cc3c(=O)n2C)CC1C(F)(F)F (single isomer, unassigned) [Example 267] |
|  |  |  |  | < 4.82 | < 4.82 | 6.30 to 9.00 | 6.30 to 9.00 | Cc1cc([C@@H](C)Nc2ccccc2C(=O)O)c2cc(N3CCN(C(C)C(F)(F)F)CC3)n(C)c(=O)c2c1 (single isomer, unassigned) [Example 278] |
| 6.30 to 9.00 | < 4.82 | 6.30 to 9.00 | < 4.82 |  |  |  |  | Cc1cc([C@@H](C)Nc2ccccc2C(=O)O)c2cc(N3CCN(C(C)C(F)(F)F)CC3)n(C)c(=O)c2c1 (single isomer, unassigned) [Example 279] |
|  |  |  |  | < 4.82 | < 4.82 | 6.30 to 9.00 | 6.30 to 9.00 | Cc1cc([C@@H](C)Nc2ccccc2C(=O)O)c2cc(N3CCN(C)C(C(F)(F)F)C3)n(C)c(=O)c2c1 (single isomer, unassigned) [Example 301] |
| 6.30 to 9.00 | < 4.82 | 6.30 to 9.00 | < 4.82 |  |  |  |  | Cc1cc([C@@H](C)Nc2ccccc2C(=O)O)c2cc(N3CCN(C)C(C(F)(F)F)C3)n(C)c(=O)c2c1 (single isomer, unassigned) [Example 302] |
|  | 4.82 to 5.70 |  | 4.82 to 5.70 |  |  | 6.30 to 9.00 | 6.30 to 9.00 | COC[C@@H]1CC1c1cc2c([C@@H](C)Nc3ccccc3C(=O)O)cc(C)cc2c(=O)n1C (single isomer, unassigned) [Example 308] |
|  |  |  | 4.82 to 5.70 | < 4.82 |  | 6.30 to 9.00 | 6.30 to 9.00 | Cc1cc([C@@H](C)Nc2ccccc2C(=O)O)c2cc(C3C[C@H]3C3CC3)n(C)c(=O)c2c1 (single isomer, unassigned) [Example 309] |
|  | 4.82 to 5.70 |  |  |  | < 4.82 | 6.30 to 9.00 | 6.30 to 9.00 | Cc1cc([C@@H](C)Nc2ccccc2C(=O)O)c2cc(C3C[C@H]3C)n(C)c(=O)c2c1 (single isomer, unassigned) [Example 310] |
|  | < 4.82 |  |  |  | < 4.82 | 6.30 to 9.00 | 6.30 to 9.00 | Cc1cc([C@@H](C)Nc2ccccc2C(=O)O)c2cc(C3C[C@H]3C(C)C)n(C)c(=O)c2c1 (single isomer, unassigned) [Example 311] |
| 6.30 to 9.00 | 4.82 to 5.70 | 6.30 to 9.00 | < 4.82 |  |  |  |  | Cc1cc([C@@H](C)Nc2ccccc2C(=O)O)c2cc(C3C[C@H]3C(C)C)n(C)c(=O)c2c1 (single isomer, unassigned) [Example 312] |
| 6.30 to 9.00 | < 4.82 | 6.30 to 9.00 | < 4.82 |  |  |  |  | Cc1cc([C@@H](C)Nc2ccccc2C(=O)O)c2cc(C3C[C@H]3C)n(C)c(=O)c2c1 (single isomer, unassigned) [Example 313] |
| 6.30 to 9.00 | < 4.82 | 6.30 to 9.00 | < 4.82 |  |  |  |  | COC[C@@H]1CC1c1cc2c([C@@H](C)Nc3ccccc3C(=O)O)cc(C)cc2c(=O)n1C (single isomer, unassigned) [Example 314] |
| 6.30 to 9.00 | < 4.82 | 6.30 to 9.00 | < 4.82 |  |  |  |  | Cc1cc([C@@H](C)Nc2ccccc2C(=O)O)c2cc(C3C[C@H]3C3CC3)n(C)c(=O)c2c1 (single isomer, unassigned) [Example 315] |
|  |  |  |  | < 4.82 | < 4.82 | 6.30 to 9.00 | 6.30 to 9.00 | Cc1cc([C@@H](C)Nc2cccc(F)c2C(=O)O)c2cc(C3C[C@H]3C)n(C)c(=O)c2c1 (single isomer, unassigned) [Example 355] |
| 6.30 to 9.00 | < 4.82 | 6.30 to 9.00 | < 4.82 |  |  |  |  | Cc1cc([C@@H](C)Nc2cccc(F)c2C(=O)O)c2cc(C3C[C@H]3C)n(C)c(=O)c2c1 (single isomer, unassigned) [Example 356] |
